Reference: US9302999B2, “Substituted triazoles as herbicides” (E. I. DU PONT DE NEMOURS AND COMPANY, priority 2012, dated 2016)

Tests used:
[1] = test system: waterhemp_RES1 (ALS/Triazine resistant common waterhemp, Amaranthus rudis); test: Test F postemergence: waterhemp_RES1; format: in vivo; conditions: scale 0 to 100
Description: (§1) Seeds of plant species selected from corn (Zea mays), soybean (Glycine max), velvetleaf (Abutilon theophrasti), lambsquarters (Chenopodium album), poinsettia, wild (wild poinsettia, Euphorbia heterophylla), pigweed, palmer (palmer pigweed, Amaranthus palmeri), waterhemp (common waterhemp, Amaranthus rudis), surinam grass (Brachiaria decumbens), crabgrass, Brazil (Brazilian crabgrass, Digitaria horizontalis), panicum, fall (fall panicum Panicum dichotomiflorum), crabgrass, large (large crabgrass, Digitaria sanguinalis), foxtail, giant (giant foxtail, Setaria faberii), foxtail, green (green foxtail Setaria viridis), goosegrass (Eleusine indica), ragweed (common ragweed, Ambrosia elatior), barnyardgrass (Echinochloa crus-galli), sandbur (southern sandbur, Cenchrus echinatus), arrowleaf sida (Sida rhombifolia), ryegrass, Italian (Italian ryegrass, Lolium multiflorum), dayflower, VA (Virginia (VA) dayflower, Commelina virginica), field bindweed (Convolvulus arvensis), cocklebur (common cocklebur, Xanthium strumarium), morningglory (Ipomoea coccinea), nightshade (eastern black nightshade, Solanum ptycanthum), kochia (Kochia scoparia), nutsedge, yellow (yellow nutsedge, Cyperus esculentus), johnsongrass (Sorghum halepense), smartweed (ladysthumb smartweed, Polygonum persicaria), and beggarticks (hairy beggarticks, Bidens pilosa), were planted into a silt loam soil and treated preemergence with test chemicals formulated in a non-phytotoxic solvent mixture which included a surfactant. At the same time, plants selected from these crop and weed species and also pigweed (Amaranthus retroflexus), waterhemp_RES1 (ALS/Triazine resistant common waterhemp, Amaranthus rudis) and waterhemp_RES2 (ALS/HPPD resistant common waterhemp, Amaranthus rudis) were planted in pots containing a planting medium comprising spaghnum peat moss, vermiculite, wetting agent and starter nutrients treated with postemergence applications of some of the test chemicals formulated in the same manner. Plants ranged in height from 2 to 18 cm for postemergence treatments (1- to 4-leaf stage).
(§2) Treated plants and controls were maintained in a greenhouse for 14 to 21 days, after which time all species were compared to controls and visually evaluated. Plant response ratings, summarized in Table E, are based on a scale of 0 to 100 where 0 is no effect and 100 is complete control. A dash (-) response means no test result.

[2] = test system: waterhemp_RES2 (ALS/HPPD resistant common waterhemp, Amaranthus rudis); test: Test F postemergence: waterhemp_RES2; format: in vivo; conditions: scale 0 to 100
Description: as §1, §2

Compound: Cc1nn(-c2ccnc(Cl)c2)nc1Cc1ccnc(C(F)(F)F)c1 [Compound 141]
- Plant response rating, Waterhemp, Res1 ([1]; 8 g ai/ha): 90
- Plant response rating, Waterhemp, Res1 ([1]; 16 g ai/ha): 95
- Plant response rating, Waterhemp, Res1 ([1]; 31 g ai/ha): 95
- Plant response rating, Waterhemp, Res1 ([1]; 62 g ai/ha): 95
- Plant response rating, Waterhemp, Res1 ([1]; 125 g ai/ha): 95
- Plant response rating, Waterhemp, Res2 ([2]; 8 g ai/ha): 85
- Plant response rating, Waterhemp, Res2 ([2]; 16 g ai/ha): 95
- Plant response rating, Waterhemp, Res2 ([2]; 31 g ai/ha): 95
- Plant response rating, Waterhemp, Res2 ([2]; 62 g ai/ha): 95
- Plant response rating, Waterhemp, Res2 ([2]; 125 g ai/ha): 100

Compound: CCc1nn(-c2ccc(C(F)(F)F)cc2)nc1Oc1ccnc(C(F)(F)F)c1 [Compound 169]
- Plant response rating, Waterhemp, Res1 ([1]; 16 g ai/ha): 85
- Plant response rating, Waterhemp, Res1 ([1]; 31 g ai/ha): 90
- Plant response rating, Waterhemp, Res1 ([1]; 62 g ai/ha): 90
- Plant response rating, Waterhemp, Res1 ([1]; 125 g ai/ha): 95
- Plant response rating, Waterhemp, Res1 ([1]; 250 g ai/ha): 95
- Plant response rating, Waterhemp, Res2 ([2]; 16 g ai/ha): 75
- Plant response rating, Waterhemp, Res2 ([2]; 31 g ai/ha): 85
- Plant response rating, Waterhemp, Res2 ([2]; 62 g ai/ha): 95
- Plant response rating, Waterhemp, Res2 ([2]; 125 g ai/ha): 100
- Plant response rating, Waterhemp, Res2 ([2]; 250 g ai/ha): 100

Compound: CCCc1nn(-c2ccc(F)c(F)c2)nc1Oc1ccnc(C(F)(F)F)c1 [Compound 172]
- Plant response rating, Waterhemp, Res1 ([1]; 31 g ai/ha): 70
- Plant response rating, Waterhemp, Res1 ([1]; 125 g ai/ha): 95
- Plant response rating, Waterhemp, Res1 ([1]; 250 g ai/ha): 95

Compound: CCOc1nn(-c2ccc(F)cc2)nc1Cc1ccnc(C(F)(F)F)c1 [Compound 196, 4-[[5-ethoxy-2-(4-fluorophenyl)-2H-1,2,3-triazol-4-yl]methyl]-2-(trifluoromethyl)pyridine]
- Plant response rating, Waterhemp, Res1 ([1]; 8 g ai/ha): 95
- Plant response rating, Waterhemp, Res1 ([1]; 16 g ai/ha): 95
- Plant response rating, Waterhemp, Res1 ([1]; 31 g ai/ha): 95
- Plant response rating, Waterhemp, Res1 ([1]; 62 g ai/ha): 95
- Plant response rating, Waterhemp, Res1 ([1]; 125 g ai/ha): 100
- Plant response rating, Waterhemp, Res2 ([2]; 8 g ai/ha): 90
- Plant response rating, Waterhemp, Res2 ([2]; 16 g ai/ha): 90
- Plant response rating, Waterhemp, Res2 ([2]; 31 g ai/ha): 95
- Plant response rating, Waterhemp, Res2 ([2]; 62 g ai/ha): 95
- Plant response rating, Waterhemp, Res2 ([2]; 125 g ai/ha): 95
